What all share (test): minimal inhibitory concentration (MIC) by two-fold agar-plate dilution method
Common to all, as to assay type: cell-based

In one test the test system is Ps. Aeruginosa 721. The following applies: Pseudomonas aeruginosa, 10^6 viable cells per ml, HI-agar, 37° C., 20 hours. How it is done:
(§1) For the purpose of illustrating of usefulness of the object compound(1) of this invention, the following minimal inhibitory concentrations of some representative compounds against some test strains will be shown.
(§2) The minimal inhibitory concentration (MIC) was determined by the two-fold agar-plate dilution method as described below.
(§3) One loopful of an overnight culture of each test strain in Trypticase-soy broth was streaked on heart infusion agar (HI-agar) containing graded concentrations of representative antibiotic, and the MICs were expressed in terms of μg/ml. after incubation at 37° C. for 20 hours.

The next test deals with Sal. Enteritidis. To be noted: Salmonella enterica, 10^8 viable cells per ml, HI-agar, 37° C., 20 hours. How it is done:
as §2, §3

The test system of another test is Staph. Aureus 209-P. To be noted: Staphylococcus aureus, 10^8 viable cells per ml, HI-agar, 37° C., 20 hours. The method, then:
as §2, §3

In the next test the test system is B. Subtilis ATCC-6633. The following applies: Bacillus subtilis, ATCC6633, 10^8 viable cells per ml, HI-agar, 37° C., 20 hours. The method, then:
as §2, §3

Another test concerns Sh flexneri 2a. To be noted: 20 h. How it is done: as §1, §2, §3
The next test relates to Ps. Aeruginosa. The following applies: Pseudomonas aeruginosa. The method, then: as §2, §3
Where [1] appears, read: Sal. Enteritidis, first part of table.
Setting [2] is: ENTERITIDIS, Sal. Enteritides, second part of table.
[3] abbreviates: Ps. Aeruginosa, 10^6 viable cells per ml, HI-agar, 37° C., 20 hours, read-out: MIC.

The structures appear in SMILES notation. ≈ marks a conversion by molar mass, not a printed value. Read-outs that look alike come from different tables or passages of the source.

With `Cn1nnnc1SCC1=C(C(=O)O)N2C(=O)C(NC(=O)[C@H](NC(=O)c3nonc3O)c3ccccc3)[C@H]2SC1` (stereo partly drawn) [Example 1-1, 7-[D-2-(4-hydroxy-3-furazancarboxamido)-2-phenylacetamido]-3-(1-methyl-1H-tetrazol-5-ylthiomethyl)-3-cephem-4-carboxylic acid], the MIC in the test on Ps. Aeruginosa 721 was found to be 0.39 µg/mL (≈ 0.68 µM).

In turn, `Cn1nnnc1SCC1=C(C(=O)O)N2C(=O)C(NC(=O)[C@H](NC(=O)c3cnc4ccccn4c3=O)c3ccccc3)C2SC1` (stereo partly drawn) [Example 1-6, 7-[D-2-(4-oxo-4H-pyrido[1,2-a]pyrimidine-3-carboxamido)-2-phenylacetamide]-3-(1-methyl-1H-tetrazol-5-ylthiomethyl)-3-cephem-4-carboxylic acid] had an MIC with Ps. Aeruginosa 721 of 1.56 µg/mL (≈ 2.46 µM).

For the compound `Cn1nnnc1SCC1=C(C(=O)O)N2C(=O)C(NC(=O)[C@H](NC(=O)N3CCOC3=O)c3ccccc3)[C@H]2SC1` (stereo partly drawn) [Example 1-10, 7-[D-2-(2-oxo-3-oxazolidinecarboxamido)-2-phenylacetamido]-3-(1-methyl-1H-tetrazol-5-ylthiomethyl)-3-cephem-4-carboxylic acid], the minimum inhibitory concentration (MIC) with Ps. Aeruginosa 721 stood at 0.39 µg/mL (≈ 0.679 µM); in the test with Sal. Enteritidis (setting [1]) it was 0.78 µg/mL (≈ 1.36 µM); against Staph. Aureus 209-P, 0.78 µg/mL (≈ 1.36 µM); against B. Subtilis ATCC-6633, 0.2 µg/mL (≈ 0.348 µM).

Consider `Cn1nnnc1SCC1=C(C(=O)O)N2C(=O)C(NC(=O)[C@H](NC(=O)Cc3cc(=O)[nH]c(=N)[nH]3)c3ccccc3)C2SC1` (some centres unmarked) [Example 1-16], for which the MIC with Ps. Aeruginosa 721 is 1.56 µg/mL (≈ 2.55 µM).

For the compound `Cn1nnnc1SCC1=C(C(=O)O)N2C(=O)C(NC(=O)[C@H](NC(=O)c3cc(Cl)n[nH]c3=O)c3ccccc3)[C@H]2SC1` (stereo partly drawn) [Example 1-20, 7-[D-2-(3-oxo-6-chloro-2,3-dihydro-4-pyridazinecarboxamido)-2-phenylacetamido]-3-(1-methyl-1H-tetrazol-5-ylthiomethyl)-3-cephem-4-carboxylic acid], the minimum inhibitory concentration (MIC) with Ps. Aeruginosa 721 came out at 0.78 µg/mL (≈ 1.26 µM).

Turning to `Cc1[nH]cc(OCC(=O)N[C@@H](C(=O)NC2C(=O)N3C(C(=O)[O-])=C(CSc4nnnn4C)CS[C@H]23)c2ccccc2)c(=O)c1Cl.[Na+]` (stereo partly drawn) [Example 1-31, sodium 7-{D-2-[2-(4-oxo-5-chloro-6-methyl-1,4-dihydropyridin-3-yloxy)acetamido]-2-phenylacetamido}-3-(1-methyl-1H-tetrazol-5-ylthiomethyl)-3-cephem-4-carboxylate], the minimal inhibitory concentration (MIC) against Sh flexneri 2a amounted to 0.2 µg/mL; in the test with Sal. Enteritidis (setting [1]), 0.39 µg/mL; against Staph. Aureus 209-P, 1.56 µg/mL; with B. Subtilis ATCC-6633 it was 0.78 µg/mL; in the test on Ps. Aeruginosa (20 h), 0.78 µg/mL.

On to `Cn1nnnc1SCC1=C(C(=O)O)N2C(=O)C(NC(=O)[C@H](NC(=O)COc3c[nH]c(CO)c(Cl)c3=O)c3ccccc3)[C@H]2SC1` (stereo partly drawn) [Example 1-34, 7-{D-2-[2-(4-oxo-5-chloro-6-hydroxymethyl-1,4-dihydropyridin-3-yloxy)-acetamido]-2-phenylacetamido}-3-(1-methyl-1H-tetrazol-5-ylthiomethyl)-3-cephem-4-carboxylic acid], for which the MIC in the test on Sh flexneri 2a came out at 0.2 µg/mL (≈ 0.295 µM); against Sal. Enteritidis (setting [2]), 0.2 µg/mL (≈ 0.295 µM); with Ps. Aeruginosa (setting [3]), 0.78 µg/mL (≈ 1.15 µM).

In the case of `Cn1nnnc1SCC1=C(C(=O)O)N2C(=O)C(NC(=O)[C@H](NC(=O)COc3c[nH]c(CCl)cc3=O)c3ccccc3)C2SC1` (stereo partly drawn) [Example 1-35, 7-{D-2-[2-(4-oxo-6-chloromethyl-1,4-dihydropyridin-3-yloxy)acetamido]-2-penylacetamido}-3-(1-methyl-1H-tetrazol-5-ylthiomethyl)-3-cephem-4-carboxylicacid], the results for the MIC with Sh flexneri 2a, in the test on Sal. Enteritidis (setting [2]) and with Ps. Aeruginosa (setting [3]) were 0.39 µg/mL (≈ 0.59 µM), 0.39 µg/mL (≈ 0.59 µM) and 0.78 µg/mL (≈ 1.18 µM), respectively.

Turning to `Cc1cc(=O)c(OCC(=O)N[C@@H](C(=O)NC2C(=O)N3C(C(=O)O)=C(CSc4nnnn4C)CSC23)c2ccccc2)c[nH]1` (stereo partly drawn) [Example 1-36, 7-{D-2-[2-(4-oxo-6-methyl-1,4-dihydropyridin-3-yloxy)acetamido]-2-phenylacetamido}-3-(1-methyl-1H-tetrazol-5-ylthiomethyl)-3-cephem-4-carboxylic acidm], the MIC worked out at 0.39 µg/mL (≈ 0.622 µM) against Sh flexneri 2a, 0.78 µg/mL (≈ 1.24 µM) with Sal. Enteritidis (setting [2]) and 1.56 µg/mL (≈ 2.49 µM) with Ps. Aeruginosa (setting [3]).

For the compound `Cc1[nH]cc(OCC(=O)N[C@@H](C(=O)NC2C(=O)N3C(C(=O)O)=C(CSc4nnnn4C)CSC23)c2ccc(O)cc2)c(=O)c1Cl` (stereo partly drawn) [Example 1-37, 7-{D-2-[2-(4-oxo-5-chloro-6-methyl-1,4-dihydropyridin-3-yloxy)acetamido]-2-(4-hydroxy)phenylacetamido} -3-(1-methyl-1H-tetrazol-5-ylthiomethyl)-3-cephem-4-carboxylic acid], the MIC with Sh flexneri 2a is 0.1 µg/mL (≈ 0.148 µM); with Sal. Enteritidis (setting [2]), 0.05 µg/mL (≈ 0.0738 µM); in the test with Ps. Aeruginosa (setting [3]) it was 0.78 µg/mL (≈ 1.15 µM).

As to `Cn1nnnc1SCC1=C(C(=O)O)N2C(=O)C(NC(=O)[C@H](NC(=O)N3CCOC3=O)c3ccc(O)cc3)[C@H]2SC1` (stereo partly drawn) [Example 2-1, 7-[D-2-(2-oxo-3-oxazolidinecarboxamido)-2-(4-hydroxyphenyl)acetamido]-3-(1-methyl-1H-tetrazol-5-ylthiomethyl)-3-cephem-4-carboxylic acid], the MIC in the test with Ps. Aeruginosa 721 was determined as 0.39 µg/mL (≈ 0.66 µM).
